Read-outs that look alike come from different tables or passages of the source.

In general, EC50 refers to the concentration that produces a half-maximal response.

A short description of series [1]: in vitro. The settings on record: human.
The next series relates to PI3P. It is filed as cell-based.
A short description of series [2]: in vitro. Conditions: human. This is another data set of the same source.
A further series has as its system HCV. Conditions: cited from earlier work.
Series [3] can be described thus: in vitro. Conditions: human. The source holds these as a separate data set.
Another series deals with HCV reporter virus JcR2a. The class given is cell-based, hepatitis C virus. Conditions: HCV infection system, Huh7-derived cells expressing CD81.
Series [4] concerns HA-nsp3-4-V5-induced DMVs. It is filed as cell-based.
The subject of the next series is PI4P. It is filed as cell-based. The settings on record: Huh7-Lunet/T7 cells expressing HCV NS3-5B, 1 µM for 2 h.
Series [5] concerns SARS-CoV-2.
Series [6] relates to SARS-CoV-2. Kind of series: qRT-PCR-based SARS-CoV-2 replication assay in Calu-3 cells. The class given is cell-based. On the technique in general: Real-time PCR tracks product formation cycle by cycle.
In series [7] the test system is SARS-CoV-2. Kind of series: microbe, parasite or virus in culture. The settings on record: Severe acute respiratory syndrome coronavirus 2, A549-ACE2, read-out: EC50, SARS-CoV-2.

`COC(=O)N[C@H](C(=O)N1CCC[C@H]1c1nc(-c2ccc(-c3ccc(-c4c[nH]c([C@@H]5CCCN5C(=O)[C@@H](NC(=O)OC)C(C)C)n4)cc3)cc2)c[nH]1)C(C)C` [Daclatasvir] yielded a CC50 in “in vitro [1]” of over 25 nM. Besides, in the series on PI3P, the “number of GFP-DFCP1 puncta in NS3-5B-expressing cells (NS5A wildtype)” value is reported as “blunted” and the “reduction of GFP-DFCP1 abundance in cells expressing NS3-5B with NS5A Y93H” value was “not observed”. The same compound had a CC50 in the series “in vitro [2]” of over 25 nM. Also, the DMV formation entry with HCV (NS5A inhibitor, ref Berger et al., 2014) is recorded as “block”.

As to `Cn1cnc(N)c2ncnc1-2` [3-methyladenine], in the series on HCV (PI3K inhibitor, ref Su et al., 2011), the “abundance of LC3-II in HCV-infected cells” value is recorded as “reduces”.

In turn, `CCC(CC)COC(=O)[C@H](C)N[P@](=O)(OC[C@H]1O[C@@](C#N)(c2ccc3c(N)ncnn23)[C@H](O)[C@@H]1O)Oc1ccccc1` [Remdesivir] had a CC50 in “in vitro [3]” of over 10000 nM.

As for `COC[C@H]1OC(=O)c2coc3c2[C@@]1(C)C1=C(C3=O)[C@@H]2CCC(=O)[C@@]2(C)C[C@H]1OC(C)=O` [wortmannin], the HCV replication entry in the series with HCV (inhibition of PI3K activity, ref Mohl et al., 2016) is given as “impairs”.

Turning to `Nc1ncc(-c2ccnc(Nc3ccncc3)n2)c(CC2CC2)n1` [PIK-III], in the series with Huh7-Lunet/T7 cells, the “cell viability in HCV NS3-5B-transfected cells” value is listed as “neither affected” and the “cell viability in SARS-CoV-2 HA-nsp3-4-V5-transfected cells” value was “did not affect”. Moreover, the “selectivity index (ratio of EC50 and CC50)” value in the series on HCV reporter virus JcR2a was over 10. In [4], the “number of HA-nsp3-4-V5-induced DMVs” value is on record as “significantly reduced”. The “elevation of PI4P (PI4P puncta)” value with PI4P is “no effect”. Further, the “fold by which EC50 is below the CC50 value” in the series on SARS-CoV-2 [5] (A549/ACE2 cells) is given as at least 250 fold. In addition, in the series with SARS-CoV-2 [5] (read-out: EC50, SARS-CoV-2), the EC50 amounted to 172 nM. Besides, the SARS-CoV-2 replication efficiency entry with SARS-CoV-2 [6] is “inhibition”. In the series on SARS-CoV-2 [7], the EC50 is about 170 nM. Besides, in the series on PI3P, the “abundance of GFP-DFCP1 puncta in SARS-CoV-2-infected cells” value is listed as “reduced”, the “abundance of GFP-DFCP1 puncta in starved cells” value is given as “reduced to background levels” and the “number of GFP-DFCP1 puncta in HCV-replicating cells” value is “diminished”.

These data come from publication PMC8577994 (Cell Reports, 2021).
